Measurements published in a melting point compilation (Tetko et al.; mined from patent text by program, amines drawn as free bases though some values may be those of a salt).

First: COC(=O)c1cn(-c2cc(C(=O)Nc3cc(C(C)(C)C)cc(NS(C)(=O)=O)c3OC)cc(C)c2C)nn1
Second: COC(=O)c1cccc(/C=C/C(=O)Nc2ccccc2NC(=O)OC(C)(C)C)c1
The melting point of the first is higher: 199 °C for the first, 79 to 82.4 °C for the second.

First: CC(=O)Nc1ccc([N+](=O)[O-])cc1O
Second: COC(=O)C(=Cc1c[nH]c2cc(C)ccc12)[N+](=O)[O-]
The melting point of the first is higher: greater than 250 °C for the first, 167 to 169 °C for the second.

First: O=C(Nc1ccc(Cl)c(C(F)(F)F)c1)Oc1ccc2c(c1)CCCN2Cc1ccccc1
Second: CN(CC(=O)O)C(=O)C(=O)c1cn(Cc2ccccc2)c2ccc(-c3cccc(OC(F)(F)F)c3)cc12
The melting point of the first is lower: 151 °C for the first, 178 to 179 °C for the second.

First: O=C1COc2ccc(NC(=O)C(=O)N3CCC(Cc4ccc(F)cc4)CC3)cc2N1
Second: Cc1ccc(N2CCN(Cc3ccc4c(c3)OCC(=O)N4)CC2)cc1
The melting point of the first is lower: 197 to 200 °C for the first, 208 to 210 °C for the second.

First: COc1ccc(CCC(=O)Nc2cc3c(c(C)c2C)OC(C)(C)C3c2ccc(C)cc2)cc1 (configuration not stated)
Second: COc1ccc(CCC2CN(C3=Nc4cc(F)ccc4Nc4sc(C)cc43)CCN2C)cc1 (configuration not stated)
The melting point of the first is lower: 149 to 150 °C for the first, 180 to 182 °C for the second.

Compared with `O=C(CC12CC3CC(CC(C3)C1)C2)Nc1ccccc1Cl`, `O=C(c1csc2ccccc12)C1CCN(CCc2ccccc2)CC1` is lower in melting point: 122 to 124 °C for the first, 110 to 112 °C for the second.

First: COc1ccc(C2=NNC(=O)[C@H]3CCCC[C@@H]23)cc1OC1CCCC1 (relative stereo)
Second: Nc1nnc(C(F)(F)F)c2c1cc1cccc(CCCN3CC4CCC(CC4)C3)n12
The melting point of the first is lower: 175 to 176 °C for the first, 252 to 253 °C for the second.

First: O=C(O)C1CCCc2c(-c3ccc(C(F)(F)F)cc3)noc2C1 (configuration not stated)
Second: COc1ccc(-c2cccc(C(=O)O)c2)c2cc(Cc3cccc(C(F)(F)F)c3)oc12
The melting point of the first is higher: 222 to 225 °C for the first, 118 to 119 °C for the second.

First: Cc1nc(N2CCCC2)ccc1N1CCCn2c1nc1c(Cl)ccc(C(OC(F)F)C(F)(F)F)c12 (configuration not stated)
Second: CN1CCN(Cc2ccc(NC(=O)c3nsc4cc(Oc5ccnc(N)n5)ccc34)cc2C(F)(F)F)CC1
The melting point of the first is higher: 233 to 236 °C for the first, 215 to 217 °C for the second.

First: CCC1(CC)c2cc(Br)ccc2-c2ccc(C=O)cc21
Second: Cc1ccc(-c2nc3ccc(N)cn3c2CNC(=O)CC(C)C)cc1
The melting point of the first is lower: 126 to 128 °C for the first, 245 to 247 °C for the second.

Compared with `O=C1CC2(CC(=O)O1)c1ccccc1Oc1ccccc12`, `O=C(O)Cc1ccc2c(c1)CCc1ccccc1O2` is lower in melting point: 188 to 190 °C for the first, 135 to 137 °C for the second.

First: CN(O)C(=O)C=Cc1ccc(F)cc1
Second: CN(O)C(=O)NCCc1ccc2c(c1)OCO2
The melting point of the first is higher: 141 to 142 °C for the first, 99 to 100 °C for the second.

Compared with `COC(=O)c1ccc(Cc2cccc3ccc(CC(C)C(=O)O)cc23)c(OC)c1` (configuration not stated), `CCOC(=O)c1cnc2c(-c3ccc(Cc4cccc(OC)c4)c(OC)c3)cnn2c1O` is higher in melting point: 110 to 129 °C for the first, 226 to 238 °C for the second.

First: CC(C)(C)OC(=O)N1CC(CCl)c2c1ccc1ccccc21 (configuration not stated)
Second: CC(C)(C)OC(=O)N(c1ccccc1)S(=O)(=O)c1ccc2c(c1)CCC(C)(C)O2
The melting point of the first is lower: 107 to 108 °C for the first, 117 to 120 °C for the second.

Compared with `OC(c1ccccc1)(c1ncc[nH]1)c1ccc(Cl)cc1Cl` (configuration not stated), `O=S(=O)(N[C@H](CO)c1ccccc1)c1ccc(Cl)cc1` is lower in melting point: 176 to 177 °C for the first, 127 to 128 °C for the second.

First: Cc1cccc(NC(=O)NCC(=O)N(CC(=O)O)c2ccccc2)c1
Second: Cc1cc2[nH]c(=O)c(C(=O)O)nc2cc1-n1ccc(CNC(=O)Nc2ccc(C(=O)O)cc2)c1
The melting point of the first is lower: 188 °C for the first, greater than 300 °C for the second.

`CC(=O)Nc1cccc(-c2ccc3nncn3n2)c1` and `COC(=O)c1sc2ccc(NC(C)=O)cc2c1N` cannot be ordered by melting point: 248 to 250 °C for the first, 248 °C for the second.

First: Nc1ncc(Br)cc1C(=O)O
Second: O=C(O)c1cc(S)n2ncnc2n1
The melting point of the first is higher: 272 °C for the first, 230 to 232 °C for the second.

Compared with `CCOC(=O)Cc1ccc2c(c1)CC(NC(=O)OC)CC2` (configuration not stated), `O=C(N1CCc2ccc(S(=O)(=O)Cl)cc2C1)C(F)(F)F` is higher in melting point: 89 to 90 °C for the first, 104 to 105 °C for the second.

First: Nc1ncnc2c1ncn2OCCSCP(=O)(O)O
Second: Nc1nc(Oc2ccccc2)nc2nc(-c3ccco3)nn12
The melting point of the first is lower: 211 to 213 °C for the first, 250 to 252 °C for the second.

Compared with `O=S(=O)(c1ccccc1)N(CCCN1CC=C(c2ccccc2)CC1)c1ccccc1`, `O=C1CCN(Cc2ccccc2)CC1=C(c1ccccc1)c1ccccc1` is higher in melting point: 112 °C for the first, 135 to 137 °C for the second.

Compared with `Cc1ccc2cccc(OCc3cccc([N+](=O)[O-])c3C)c2n1`, `COC(=O)c1cccc(OCc2c(Cl)cccc2Cl)c1` is lower in melting point: 184 to 188 °C for the first, 96 to 98 °C for the second.

Compared with `CC(O)(C(=O)NCCC(F)(F)F)C(=O)NC1C(=O)N(CCO)c2ccccc2-c2ccccc21` (configuration not stated), `O=C1c2ccccc2C(=O)N1OCCN(CCO)CCON1C(=O)c2ccccc2C1=O` is higher in melting point: 59 to 62 °C for the first, 136 to 138 °C for the second.

Going from `Cc1ccc(-c2cc(C(F)(F)F)n3cnc(-c4ccncc4)c3n2)cc1C(F)(F)F` to `Cc1cc(-c2ccc(C(F)(F)F)cc2)cc(-c2ccnc(-c3cccc(N)c3)n2)n1`, the melting point falls from 222 °C to 167 °C.

Compared with `C(=Cc1nc2ccccc2s1)c1ccc2cc(N(c3ccccc3)c3ccccc3)ccc2c1`, `c1ccc(-c2ccc(Nc3nccc(-c4ccc(-c5ccc(N(c6ccccc6)c6ccccc6)cc5)cc4)n3)cc2)cc1` is higher in melting point: 181 to 185 °C for the first, greater than 300 °C for the second.

First: COc1cc(OC)nc(Oc2cccc(Cl)c2C(=O)ON(C)C)n1
Second: COc1nc(N)c2c(OC)c(OC)cc(Cl)c2n1
The melting point of the first is lower: 80 to 81 °C for the first, 203 to 204 °C for the second.

First: Cc1c(-n2ccnc2)n(Cc2ccc(C(=O)O)cc2)c2ccccc12
Second: O=C(O)c1cn(-c2ccccc2)c2cc(-c3ccncc3)ccc2c1=O
The melting point of the first is lower: 221 to 225 °C for the first, greater than 325 °C for the second.

First: O=C(N[C@H](Cc1ccc(C(F)(F)F)cc1)[C@@H](O)c1ccc(F)cc1)c1cccc2cc3ccccc3cc12 (racemic)
Second: Cc1ccccc1-c1nc2c3ccccc3ccn2c1NC(C)c1ccccc1 (configuration not stated)
The melting point of the first is higher: 227 to 228 °C for the first, 160 to 162 °C for the second.

First: CC(C)(O)COc1c(-c2ccc(S(C)(=O)=O)cc2)cnn(-c2ccc(Cl)c(Cl)c2)c1=O
Second: CC1(C)C(=O)C(c2ccc(S(C)(=O)=O)cc2)=C1c1ccc(S(C)(=O)=O)cc1
The melting point of the first is lower: 108 to 110 °C for the first, 212 °C for the second.

First: CC(C)(C)OC(=O)N(Cc1ncccc1C(N)=NO)C(=O)OC(C)(C)C
Second: CCCc1c(OCCCOc2cc(NC(=O)C(=O)O)c(C)cc2Br)ccc(C(C)=O)c1O
The melting point of the first is higher: 178 to 180 °C for the first, 101 to 103 °C for the second.

First: O=C(O)c1cn(-c2cccc(OC(F)F)c2)cn1
Second: O=C(O)c1csc(-c2ccccc2O)n1
The melting point of the first is lower: 190 to 191 °C for the first, 268 to 269 °C for the second.

First: CN1C[C@@H](C(=O)OCc2ccccc2)N(C(=O)OCc2ccccc2)C1=O
Second: CN1C(=O)C(NC(=O)OCc2ccccc2)N=C(c2ccccc2)c2ccccc21 (configuration not stated)
The melting point of the first is higher: 120 to 122 °C for the first, 78 to 80 °C for the second.

Compared with `CN1CC(CCN(C)c2ccccc2)Oc2ncccc2C1=S` (configuration not stated), `O=C1c2ccccc2CN1C1CCN(Cc2ccccc2)CC1` is lower in melting point: 164 to 165 °C for the first, 116 to 118 °C for the second.

Compared with `Cc1ccc(Oc2c(C)cc(N)c(C)c2Cl)c(C)c1`, `Cc1cc(C)c2c(n1)CC(c1ccccc1C)CC2=O` (configuration not stated) is higher in melting point: 86 to 88 °C for the first, 106 to 107 °C for the second.

First: O=C(O)C1=CS[C@@H]2/C(=C\c3ccc4nc5sccn5c4c3)C(=O)N12
Second: O=C(O)c1cc(=O)c(Sc2ccc(Cl)cc2)co1
The melting point of the first is higher: greater than 250 °C for the first, 165 to 167 °C for the second.

First: CN(C)CC(=O)N1c2ccccc2N(C)S(=O)(=O)c2ccc(C(F)(F)F)cc21
Second: CN1CCC2(C)c3cc(OC(=O)N4CCc5ccccc5C4)ccc3N(C)C12 (configuration not stated)
The melting point of the first is higher: 156 to 157 °C for the first, 118 to 119 °C for the second.

Compared with `CC1(C)CCC(C)(C)c2c1ccc(C=Nc1ccc(C(=O)O)c(O)c1)c2N`, `Cc1ncc2c(c1C(=O)O)COc1ccccc1C2=O` is higher in melting point: 209 to 210 °C for the first, 216 to 218 °C for the second.

First: N#CCc1nc(-c2ccc(Cl)cc2)sc1-c1ccccc1
Second: O=C(O)CCc1cc2nc(Cl)ccc2n1S(=O)(=O)c1cccc2ccccc12
The melting point of the first is higher: 118 to 120 °C for the first, 93 °C for the second.

First: CCCC(CNC(=O)Cc1c(Cl)cncc1Cl)c1cccc(OC)c1 (configuration not stated)
Second: COc1cc(CN2C(=O)CCC2=O)cc(OC)c1-c1ccc(C[C@H](NC(=O)c2c(Cl)cccc2Cl)C(=O)O)cc1
The melting point of the first is lower: 97 to 98 °C for the first, 137 °C for the second.

Compared with `COc1c([N+](=O)[O-])ccc2c1C(=O)CC1(CCN(C(C)=O)CC1)O2`, `CCC1(CC(=O)O)OCC(=O)c2c1[nH]c1cccc(Cl)c21` (configuration not stated) is higher in melting point: 160 to 165 °C for the first, 240 to 243 °C for the second.

First: Oc1nc2cccccc-2n1
Second: C[C@H](C#Cc1ccc(Cc2ccccc2)s1)N(O)C(N)=O
The melting point of the first is higher: 245 °C for the first, 140 to 142 °C for the second.

First: CN1CCC(O)(C2CC(c3ccc(-c4ccc(N5C[C@H](Cn6ccnn6)OC5=O)cc4F)cn3)=NO2)CC1 (some centres not stated)
Second: Cc1cc(OC2CCN(CCNC(=O)c3ccc(S(C)(=O)=O)cc3)CC2)ccc1Cl
The melting point of the first is lower: 73 °C for the first, 123 to 124 °C for the second.

Compared with `O=C(O)CNc1nccc(-n2cc(C3c4ccccc4C=Cc4ccccc43)c(=S)[nH]c2=O)n1`, `O=C(Nc1ccc(C(=O)N2CCc3sc(Cc4c[nH]cn4)nc3-c3ccccc32)cc1)c1ccccc1-c1ccccc1` is lower in melting point: 208 °C for the first, 192 to 195 °C for the second.

First: O=C(CCCN1CCOCC1)c1ccc2oc3ccc(C(=O)CCCN4CCOCC4)cc3c2c1
Second: CCCN(CCC)c1nc2c(N3CCCCCC3)nc(N3CCOCC3)cc2c(=O)[nH]1
The melting point of the first is lower: 98 to 99 °C for the first, 250 °C for the second.

Compared with `CC(C)(C)NC(=O)C1CCC2C3CNC4=CC(=O)CCC4(C)C3CCC12C` (configuration not stated), `COc1ccc(Cl)cc1C(C)(C)O` is lower in melting point: 186 to 189 °C for the first, 56 °C for the second.

First: CN1C(=O)C=C(c2cccc(Cl)c2)C1=O
Second: NC[C@H]1C=Cc2cc(F)cc(-c3c(Cl)cccc3Cl)c2O1
The melting point of the first is lower: 111 to 113 °C for the first, 153 to 155 °C for the second.

Compared with `CCOC(=O)C1Cc2c([nH]c3ccccc23)CN1C(=S)SCc1cccs1` (configuration not stated), `NC(=O)NN=Cc1c2ccccc2c(C=NNC(N)=O)c2ccccc12` is higher in melting point: 205 to 207 °C for the first, 300 °C for the second.

First: COc1cc(OC)cc(-c2ncoc2-c2ccc(OC)c(N)c2)c1
Second: O=C(Nc1cccc(Cl)c1)c1ccccc1CN1C(=O)C2(COc3cc4c(cc32)CCO4)c2ccccc21 (configuration not stated)
The melting point of the first is lower: 163 to 165 °C for the first, greater than 230 °C for the second.

`CNc1ccnc(Cl)c1N` showed a melting point of 166 to 168 °C.
